One data set has as its target T1, M1 receptor (Homo sapiens, UniProt P11229).
T1 sequence (P11229 1-460): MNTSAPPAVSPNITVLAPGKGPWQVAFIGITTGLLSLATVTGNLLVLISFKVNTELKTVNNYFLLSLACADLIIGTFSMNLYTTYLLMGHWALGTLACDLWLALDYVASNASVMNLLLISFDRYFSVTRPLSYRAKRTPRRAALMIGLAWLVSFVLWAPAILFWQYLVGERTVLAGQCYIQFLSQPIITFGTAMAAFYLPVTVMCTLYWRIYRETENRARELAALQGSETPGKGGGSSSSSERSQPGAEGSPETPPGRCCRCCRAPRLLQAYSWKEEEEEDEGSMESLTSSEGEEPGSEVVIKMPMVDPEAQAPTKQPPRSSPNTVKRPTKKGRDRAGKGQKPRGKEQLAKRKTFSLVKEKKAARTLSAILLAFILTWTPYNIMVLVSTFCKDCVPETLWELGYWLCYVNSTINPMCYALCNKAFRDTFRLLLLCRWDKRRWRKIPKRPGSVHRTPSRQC
As to the kind of experiment: Predicted target engagement for human efficacious dose (allometric scaling).

The nature of data set [1]: Fraction unbound (fu) in plasma or brain tissue homogenate. The class given is in vitro ADME. As to conditions: parameter used in receptor occupancy prediction. From the text: fu—fraction of compound unbound in plasma or brain tissue homogenate
A short description of data set [2]: Unbound brain/unbound plasma concentration ratio (Kp,uu). In kind it is in vivo. As to conditions: brain and plasma (unbound); measured unbound plasma:brain distribution; parameter used in prediction; read-out: Kpuu (unbound brain/unbound plasma concentration). An excerpt: Kp,uu—ratio of unbound brain concentration/unbound plasma concentration. Quantifies the net flux of drug across the blood brain barrier, including the quantitative role of transporters, without being confounded by nonspecific binding in plasma and brain tissues. Gupta et al, DMD, 2006; Hammarlund-Udenaes et al, PharmRes, 2008

For another data set, the system named is MDR1 (P-glycoprotein). Description: MDCK permeability/efflux. In kind it is in vitro ADME. As to conditions: dog. How it is done:
MDR1-MDCK cells (Solvo Biotechnology) were seeded onto 24-well Transwell plates at 2.35×10^5 cells per well and used in confluent monolayers after a 3 day culture at 37° C. under 5% CO2. For cell types, test and control compounds (propranolol, vinblastine) were added (1 μM, 0.1% DMSO final, n=2) to donor compartments of the Transwell plate assembly in assay buffer (Hanks balanced salt solution supplemented with 25 mM HEPES, adjusted to pH 7.4) for both apical to basolateral (A>B) and basolateral to apical (B>A) measurements. Incubations were performed at 37° C., with samples removed from both donor and acceptor chambers at T=0 and 1 hour and compound analysed by mass spectrometry (LC-MS/MS) including an analytical internal standard.
Apparent permeability (Papp) values were determined from the relationship: Papp=(CompoundAcceptor T=end/(CompoundDonor×VDonorγIncubation Time)×VDonor Area×60×10^−6 cm/s
Where V is the volume of each Transwell compartment (apical 125 μL, basolateral 600 μL), and concentrations are the relative MS responses for compound (normalized to internal standard) in the donor chamber before incubation and acceptor chamber at the end of the incubation. Area=area of cells exposed for drug transfer (0.33 cm^2). Efflux ratio (Papp B>A /Papp A>B) was calculated from the mean Papp values in each direction. […] Lucifer Yellow (LY) was added to the apical buffer in all wells to assess viability of the cell layer. […] Compound recovery from the wells was determined from MS responses (normalized to internal standard) in donor and acceptor chambers at the end of incubation compared to response in the donor chamber pre-incubation.

A short description of data set [3]: Hepatocyte stability, CLint (in vitro hepatocytes), monkey. In kind it is in vitro ADME. As to conditions: pooled cryopreserved hepatocytes, 1.0 million cells/mL, 37° C., read-out: in vitro intrinsic clearance (CLint). Here is the method: Hepatocyte stability assays were performed using pooled cryopreserved hepatocytes (Bioreclamation). Test compounds prepared in DMSO, were incubated at an initial concentration of 1 μM (0.25% DMSO final, n=2) with hepatocytes at cell densities of 1.0 million cells/mL at 37° C. Aliquots were removed at 0.5, 5, 10, 15, 30, 60 and 120 minutes for termination of reactions and compound extraction with acetonitrile containing an analytical internal standard (0.5 μM carbamazepine). Samples were centrifuged and the supernatant fractions analysed for parent compound by mass spectrometry (LC-MS/MS). The amount of compound remaining (expressed as %) was determined from the MS response in each sample relative to that in the T=0 samples (normalised for internal standard). Ln plots of the % remaining were used to determine the half-life for compound disappearance using the relationship: Half-Life(min)=−0.693/λ (where λ is the slope of the Ln % remaining vs time curve).

Data set [4] can be described thus: Aqueous solubility (thermodynamic), LCMS/MS method. In kind it is physicochemical. As to conditions: 1 mg/mL theoretical, individual replicates; for solubility thermodynamic at 4 h: 25 °C, thermodynamic from solid. Here is the method: A 10 mM stock solution (in DMSO) was prepared for the test sample. From the 10 mM stock solution, a working solution of 1 μM was prepared by diluting the test sample in mobile phase solution (typically, methanol: 2 mM ammonium acetate containing suitable internal standard (IS)—carbamazepine/any other suitable IS). Further, the working solution was serially diluted in mobile phase solution up to 5 to 6 linearity point to prepare standard solution for plotting calibration curve. The area for each standard sample is analyzed in singlet using LCMS/MS. The normalized area values are plotted vs. concentration to achieve calibration equation to determine the unknown sample. […] Test compound was dispersed in buffer solution using a vortex mixer.
The resulting solution are then kept on RotoSpin (shaker) at 50 rpm for 4 hours for TD solubility at room temperature (25° C.). After the incubation period, the solution is filtered using 0.45 micron PVDF injector filters in order to remove the insoluble fraction of the compound. Filtrate is diluted in mobile phase and subsequently the AUC is ascertained for diluted samples using LCMS/MS. From the AUC of test sample the corresponding concentration is calculated using 5 to 6 point linearity/calibration curve.
All numbers reported as uM.

Setting [5] is: parameter used in human receptor occupancy prediction.

≈ marks a conversion by molar mass, not a printed value. Where “and” joins values, the source holds several entries; their conditions need not be identical. Identical values can stand only once. Like-named read-outs stand apart in the source and are kept apart here.

The term fraction unbound denotes the share of the substance not bound to proteins or other matrix. The term Papp A→B denotes the apparent permeability from the apical to the basolateral side of a cell layer. Usually Papp B→A stands for the apparent permeability from the basolateral to the apical side of a cell layer. The thermodynamic solubility is solubility found after equilibrating the solid with the medium.

From the text for M1 receptor: Based on a measured equivalent unbound plasma:brain distribution profile (Kpuu=1) the exposures shown represent those in either the plasma or brain compartment.

For `CC(C)(C)NC(=O)C1CCN([C@H]2C[C@H]3CC[C@@H](C2)N3c2nc(C(F)(F)F)no2)CC1` [Example 1, N-tert-butyl-1-{(1R,3r,5S)-8-[3-(trifluoromethyl)-1,2,4-oxadiazol-5-yl]-8-azabicyclo[3.2.1]octan-3-yl}piperidine-4-carboxamide], on M1 receptor (human, oral, 6 hours unbound brain exposure over recombinant M1 EC50), the “predicted dose to reach the unbound brain exposure required for M1 agonist efficacy” value is “approx. 22 mg”. Besides, at M1 receptor (human, predicted from allometric scaling), the predicted human half-life is on record as 15 h. Also, at M1 receptor (setting [5]), the “CI (clearance)” value was 4.4 mL/min/kg, the “F (bioavailability)” value is listed as 0.61, the Ka is listed as 1 and the V is 5.9. In addition, the fraction unbound in data set [1] was 0.682. In data set [2], the Kp uu was 1. In the data set on MDR1 (P-glycoprotein) (apical to basolateral, 1 μM, pH 7.4, 1 hour, read-out: Apparent permeability (Papp) A−B), the Papp A→B at 1 h, 1 μM worked out at 66 ×10⁻⁶ cm/s. The basolateral-to-apical permeability (Papp B→A) at 1 h, 1 μM in the data set on MDR1 (P-glycoprotein) (basolateral to apical, 1 μM, pH 7.4, 1 hour, read-out: Apparent permeability (Papp) B−A) stood at 77 ×10⁻⁶ cm/s. For the same compound, the efflux ratio at 1 h, 1 μM in the data set with MDR1 (P-glycoprotein) (pH 7.4, read-out: B−A/A−B efflux ratio) came to 1.2. In data set [3], the hepatocyte CLint at 1 μM was < 5 µL/min/1e6 cells. For the same compound, the “Thermodynamic solubility, Blank FaSSIF pH 6.5 (n = 4)” value in data set [4] (Blank FaSSIF (Aq. Buffer) pH 6.5, 4 hours, 25° C.) was 1941 uM and 1937 uM and 2022 uM. In data set [4] (Blank FaSSIF (aqueous buffer), pH 6.5, aqueous buffer, Blank FaSSIF (Aq. Buffer) pH 6.5, 4 hours, read-out: Thermodynamic solubility, Blank FaSSIF pH 6.5 (n = 4)), the thermodynamic solubility at 4 h turned out to be 1740 µM (≈ 749 µg/mL). In addition, in data set [4] (FaSSIF pH 6.5, 4 hours, 25° C.), the “Thermodynamic solubility, FaSSIF pH 6.5 (n = 4)” value is 2448 uM and 1713 uM and 2104 uM. Moreover, the solubility (thermodynamic) at 4 h in data set [4] (FaSSIF, pH 6.5, fassif, FaSSIF pH 6.5, 4 hours, read-out: Thermodynamic solubility, FaSSIF pH 6.5 (n = 4)) was found to be 2010 µM (≈ 862 µg/mL). Further, the “Thermodynamic solubility, SGF pH 1.2 (n = 4)” value in data set [4] (SGF pH 1.2, 4 hours, 25° C.) was 1988 uM and 1702 uM and 2039 uM. In addition, in data set [4] (SGF, pH 1.2, simulated gastric fluid, SGF pH 1.2, 4 hours, read-out: Thermodynamic solubility, SGF pH 1.2 (n = 4)), the thermodynamic solubility at 4 h was 2080 µM (≈ 893 µg/mL).
